# From publication PMC9090415, “Discovery of small molecule inhibitors of Plasmodium falciparum apicoplast DNA polymerase” (Journal of Enzyme Inhibition and Medicinal Chemistry, 2022)
# Target: P. falciparum apicoplast DNA polymerase (Pf-apPOL) (Plasmodium falciparum, UniProt Q8ILY1)
# Assay: Fluorescence-based high-throughput DNA polymerase assay (molecular beacon), primary screen and dose-response;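 as to % inhibition ApPOL 90': test concentration in µM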;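 as to % inhibition apPOL 180': test concentration in µM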
# Assay type: biochemical
# Outline: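 Single-point screening used 10 µM compound with 20 nM polymerase, 20 nM hairpin substrate and 6 µM dNTPs for 90 min at 25 °C. Confirmatory titrations (2.5–80 µM) followed fluorescence at three times, and IC50 was derived from a fit including a cooperativity term n.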
# [1] = 186 hits, value of the hit list (primary screen); unit not given; 90 min, 10 µM
# [2] = primary screen value, 'DNA Pol' only; 90 min, 10 µM
# [3] = supplemental file 2, sheet IC50 nontoxic compounds; Pf-apPOL
# Sequence of P. falciparum apicoplast DNA polymerase (Pf-apPOL) (Q8ILY1 entry or part of it): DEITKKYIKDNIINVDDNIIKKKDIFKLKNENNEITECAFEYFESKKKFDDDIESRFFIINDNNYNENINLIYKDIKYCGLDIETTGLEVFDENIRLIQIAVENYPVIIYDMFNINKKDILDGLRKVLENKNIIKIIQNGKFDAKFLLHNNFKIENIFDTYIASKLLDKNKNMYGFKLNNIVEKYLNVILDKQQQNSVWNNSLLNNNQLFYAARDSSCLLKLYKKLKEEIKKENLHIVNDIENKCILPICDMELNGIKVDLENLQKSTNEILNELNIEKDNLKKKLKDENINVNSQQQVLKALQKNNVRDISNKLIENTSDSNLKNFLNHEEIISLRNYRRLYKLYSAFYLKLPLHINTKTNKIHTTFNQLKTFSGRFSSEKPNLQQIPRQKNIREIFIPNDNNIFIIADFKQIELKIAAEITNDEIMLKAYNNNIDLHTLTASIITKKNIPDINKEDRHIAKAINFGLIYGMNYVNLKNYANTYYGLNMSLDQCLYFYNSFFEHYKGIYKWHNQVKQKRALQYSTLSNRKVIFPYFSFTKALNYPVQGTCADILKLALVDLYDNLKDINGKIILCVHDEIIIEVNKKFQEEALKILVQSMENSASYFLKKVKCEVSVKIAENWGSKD
smiles,measurement,setting,value
"O=C(O)C(=O)Nc1nc(-c2ccc3c(c2)OCCO3)cs1 [Molecule 82, OC(=O)C(=O)Nc1scc(n1)c1ccc2c(c1)OCCO2]",DNA Pol,[1],43
same,% inhibition Apo pol 10',DRC-1; 10'; concentration 2.5,23.4738%
same,% inhibition Apo pol 10',DRC-1; 10'; concentration 5,27.4589%
same,% inhibition Apo pol 10',DRC-1; 10'; concentration 10,36.2592%
same,% inhibition Apo pol 10',DRC-1; 10'; concentration 20,39.5068%
same,% inhibition Apo pol 10',DRC-1; 10'; concentration 40,47.7699%
same,% inhibition Apo pol 10',DRC-1; 10'; concentration 80,63.5129%
same,% inhibition Apol 90',DRC-1; 90'; concentration 2.5,8.772%
same,% inhibition Apol 90',DRC-1; 90'; concentration 5,11.5991%
same,% inhibition Apol 90',DRC-1; 90'; concentration 10,21.2379%
same,% inhibition Apol 90',DRC-1; 90'; concentration 20,24.9603%
same,% inhibition Apol 90',DRC-1; 90'; concentration 40,33.8146%
same,% inhibition Apol 90',DRC-1; 90'; concentration 80,46.367%
same,% inhibition apPOL 180',DRC-1; 180'; concentration 2.5,0.4032%
same,% inhibition apPOL 180',DRC-1; 180'; concentration 5,2.14%
same,% inhibition apPOL 180',DRC-1; 180'; concentration 10,10.4775%
same,% inhibition apPOL 180',DRC-1; 180'; concentration 20,13.4628%
same,% inhibition apPOL 180',DRC-1; 180'; concentration 40,21.1866%
same,% inhibition apPOL 180',DRC-1; 180'; concentration 80,32.4786%
same,% inhibition Apo pol 5',"DRC-2, 5', concentration 2.5",23%
same,% inhibition Apo pol 5',"DRC-2, 5', concentration 5",17%
same,% inhibition Apo pol 5',"DRC-2, 5', concentration 10",25%
same,% inhibition Apo pol 5',"DRC-2, 5', concentration 20",30%
same,% inhibition Apo pol 5',"DRC-2, 5', concentration 40",34%
same,% inhibition Apo pol 5',"DRC-2, 5', concentration 80",46%
same,% inhibition Apol 40',"DRC-2, 40', concentration 2.5",13%
same,% inhibition Apol 40',"DRC-2, 40', concentration 5",15%
same,% inhibition Apol 40',"DRC-2, 40', concentration 10",24%
same,% inhibition Apol 40',"DRC-2, 40', concentration 20",28%
same,% inhibition Apol 40',"DRC-2, 40', concentration 40",37%
same,% inhibition Apol 40',"DRC-2, 40', concentration 80",46%
same,% inhibition ApPOL 90',"DRC-2, 90', concentration 2.5",8%
same,% inhibition ApPOL 90',"DRC-2, 90', concentration 5",14%
same,% inhibition ApPOL 90',"DRC-2, 90', concentration 10",23%
same,% inhibition ApPOL 90',"DRC-2, 90', concentration 20",26%
same,% inhibition ApPOL 90',"DRC-2, 90', concentration 40",34%
same,% inhibition ApPOL 90',"DRC-2, 90', concentration 80",43%
same,% inhibition apPOL 180',"DRC-2, 180', concentration 2.5",0.181%
same,% inhibition apPOL 180',"DRC-2, 180', concentration 5",9%
same,% inhibition apPOL 180',"DRC-2, 180', concentration 10",15%
same,% inhibition apPOL 180',"DRC-2, 180', concentration 20",18%
same,% inhibition apPOL 180',"DRC-2, 180', concentration 40",25%
same,% inhibition apPOL 180',"DRC-2, 180', concentration 80",34%
same,% inhibition Apo pol 5',DRC-2; 5'; concentration 2.5,23%
same,% inhibition Apo pol 5',DRC-2; 5'; concentration 10,25%
same,% inhibition Apo pol 5',DRC-2; 5'; concentration 40,34%
same,% inhibition Apo pol 5',DRC-2; 5'; concentration 80,46%
same,% inhibition Apol 40',DRC-2; 40'; concentration 5,15%
same,% inhibition Apol 40',DRC-2; 40'; concentration 80,46%
same,% inhibition ApPOL 90',DRC-2; 90'; concentration 10,23%
same,% inhibition ApPOL 90',DRC-2; 90'; concentration 40,34%
same,% inhibition apPOL 180',DRC-2; 180'; concentration 10,15%
same,% inhibition apPOL 180',DRC-2; 180'; concentration 40,25%
same,% inhibition apPOL 180',DRC-2; 180'; concentration 80,34%
same,DNA Pol,[2],43
O=C(O)C(=O)Nc1nc(-c2ccc3c(c2)OCCO3)cs1 [Molecule 82],IC50,[3],40.5 µM
"CO/N=C(\C(=O)N[C@@H]1C(=O)N2C(C(=O)[O-])=C(CSc3nc(=O)c([O-])nn3C)CSC12)c1csc(N)n1.[Na+].[Na+] (stereo partly drawn) [Molecule 83, CO/N=C(/c1csc(n1)N)\C(=O)N[C@@H]1C(=O)N2C1SCC(=C2C(=O)[O-])CSc1nc(=O)c(nn1C)[O-].[Na+].[Na+]]",DNA Pol,[1],48
same,% inhibition Apo pol 10',DRC-1; 10'; concentration 2.5,18.7657%
same,% inhibition Apo pol 10',DRC-1; 10'; concentration 5,26.0446%
same,% inhibition Apo pol 10',DRC-1; 10'; concentration 10,38.6298%
same,% inhibition Apo pol 10',DRC-1; 10'; concentration 20,50.9335%
same,% inhibition Apo pol 10',DRC-1; 10'; concentration 40,64.2256%
same,% inhibition Apo pol 10',DRC-1; 10'; concentration 80,74.1492%
same,% inhibition Apol 90',DRC-1; 90'; concentration 2.5,-5.899%
same,% inhibition Apol 90',DRC-1; 90'; concentration 5,-4.018%
same,% inhibition Apol 90',DRC-1; 90'; concentration 10,2.565%
same,% inhibition Apol 90',DRC-1; 90'; concentration 20,10.9979%
same,% inhibition Apol 90',DRC-1; 90'; concentration 40,25.6327%
same,% inhibition Apol 90',DRC-1; 90'; concentration 80,43.9979%
same,% inhibition apPOL 180',DRC-1; 180'; concentration 2.5,-15.6799%
same,% inhibition apPOL 180',DRC-1; 180'; concentration 5,-16.0147%
same,% inhibition apPOL 180',DRC-1; 180'; concentration 10,-9.688%
same,% inhibition apPOL 180',DRC-1; 180'; concentration 20,-2.55%
same,% inhibition apPOL 180',DRC-1; 180'; concentration 40,10.5527%
same,% inhibition apPOL 180',DRC-1; 180'; concentration 80,28.4912%
same,% inhibition Apo pol 5',"DRC-2, 5', concentration 2.5",1.37%
same,% inhibition Apo pol 5',"DRC-2, 5', concentration 5",6%
same,% inhibition Apo pol 5',"DRC-2, 5', concentration 10",18%
same,% inhibition Apo pol 5',"DRC-2, 5', concentration 20",30%
same,% inhibition Apo pol 5',"DRC-2, 5', concentration 40",42%
same,% inhibition Apo pol 5',"DRC-2, 5', concentration 80",54%
same,% inhibition Apol 40',"DRC-2, 40', concentration 2.5",-6%
same,% inhibition Apol 40',"DRC-2, 40', concentration 5",-1.68%
same,% inhibition Apol 40',"DRC-2, 40', concentration 10",9%
same,% inhibition Apol 40',"DRC-2, 40', concentration 20",20%
same,% inhibition Apol 40',"DRC-2, 40', concentration 40",37%
same,% inhibition Apol 40',"DRC-2, 40', concentration 80",59%
same,% inhibition ApPOL 90',"DRC-2, 90', concentration 2.5",-8%
same,% inhibition ApPOL 90',"DRC-2, 90', concentration 5",-7%
same,% inhibition ApPOL 90',"DRC-2, 90', concentration 10",1.87%
same,% inhibition ApPOL 90',"DRC-2, 90', concentration 20",12%
same,% inhibition ApPOL 90',"DRC-2, 90', concentration 40",30%
same,% inhibition ApPOL 90',"DRC-2, 90', concentration 80",56%
same,% inhibition apPOL 180',"DRC-2, 180', concentration 2.5",-10%
same,% inhibition apPOL 180',"DRC-2, 180', concentration 5",-12%
same,% inhibition apPOL 180',"DRC-2, 180', concentration 10",-7%
same,% inhibition apPOL 180',"DRC-2, 180', concentration 20",5%
same,% inhibition apPOL 180',"DRC-2, 180', concentration 40",21%
same,% inhibition apPOL 180',"DRC-2, 180', concentration 80",48%
same,% inhibition Apo pol 5',DRC-2; 5'; concentration 20,30%
same,% inhibition ApPOL 90',DRC-2; 90'; concentration 5,-7%
same,% inhibition ApPOL 90',DRC-2; 90'; concentration 40,30%
same,% inhibition apPOL 180',DRC-2; 180'; concentration 10,-7%
same,DNA Pol,[2],48
CO/N=C(\C(=O)N[C@@H]1C(=O)N2C(C(=O)O)=C(CSc3nc(=O)c(O)nn3C)CSC12)c1csc(N)n1 (stereo partly drawn) [Molecule 83],IC50,[3],18.7 µM
